Test results reported in ChEMBL document CHEMBL1201862, “PubChem BioAssay data set” (2004).
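Assay format: 96-well plates, 48-hour exposure. Abbreviation: GI50, concentration required for 50% inhibition of growth.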 Calls of active or inactive are those of the source. No stated cut-off is given here; in the data, active = GI50 up to about 1.1 µM and inactive = higher.

Legend:
Assay in all cases: DTP human tumour cell line panel, 48 h
SK-OV-3 = system: SK-OV-3
T47D = system: T47D
NCI/ADR-RES = system: NCI/ADR-RES
SR = system: SR
MDA-MB-435 = system: MDA-MB-435
SNB-19 = system: SNB-19
OVCAR-4 = system: OVCAR-4
HCT-15 = system: HCT-15
SN12C = system: SN12C
LOX IMVI = system: LOX IMVI
NCI-H23 = system: NCI-H23
HCC 2998 = system: HCC 2998
SK-MEL-2 = system: SK-MEL-2
UACC-257 = system: UACC-257
OVCAR-8 = system: OVCAR-8
ACHN = system: ACHN
CAKI-1 = system: CAKI-1
RPMI-8226 = system: RPMI-8226
NCI-H522 = system: NCI-H522
HCT-116 = system: HCT-116

SMILES	GI50 (SK-OV-3)	GI50 (T47D)	GI50 (NCI/ADR-RES)	GI50 (SR)	GI50 (MDA-MB-435)	GI50 (SNB-19)	GI50 (OVCAR-4)	GI50 (HCT-15)	GI50 (SN12C)	GI50 (LOX IMVI)	GI50 (NCI-H23)	GI50 (HCC 2998)	GI50 (SK-MEL-2)	GI50 (UACC-257)	GI50 (OVCAR-8)	GI50 (ACHN)	GI50 (CAKI-1)	GI50 (RPMI-8226)	GI50 (NCI-H522)	GI50 (HCT-116)
CCN1CCC(O)(/C=C/c2ccc(C)cc2C)C(C(=O)/C=C/c2ccc(C)cc2C)C1 (stereo not given)	9.57 µM (inactive)	2.39 µM (inactive)	2.46 µM (inactive)	2.37 µM (inactive)	2.51 µM (inactive)	4.03 µM (inactive)	2.99 µM (inactive)	1.93 µM	2.72 µM (inactive)	1.76 µM (inactive)	2.77 µM (inactive)	1.69 µM (inactive)	4.26 µM (inactive)	4.99 µM (inactive)	2.09 µM (inactive)	1.83 µM (inactive)	5.09 µM (inactive)	4.76 µM (inactive)	1.84 µM (inactive)	2.22 µM (inactive)
O=c1[nH]nc(-c2ccc([N+](=O)[O-])cc2)n1/N=C/c1ccc([N+](=O)[O-])cc1	> 100 µM (inactive)	> 100 µM (inactive)	64.7 µM (inactive)	52 µM (inactive)	99.5 µM (inactive)	> 100 µM (inactive)	52.1 µM (inactive)	73.8 µM	> 100 µM (inactive)	0.483 µM (active)	60.7 µM (inactive)	> 100 µM (inactive)	> 100 µM (inactive)	> 100 µM (inactive)	> 100 µM (inactive)	> 100 µM (inactive)	> 100 µM (inactive)	38.5 µM (inactive)	73.3 µM (inactive)	> 100 µM (inactive)
C/C=C(\C)C(=O)OC1C(C)=C2C(C1OC(=O)CCCC)C(C)(OC(C)=O)CC(OC(=O)CCCC)C1(O)C2OC(=O)C1(C)O (stereo not given)	4.11 µM (inactive)	6.7 µM (inactive)	36.9 µM (inactive)	0.951 µM (active)	0.501 µM (active)	0.41 µM (active)	1.86 µM (inactive)	21 µM	2.59 µM (inactive)	0.439 µM (active)	1.14 µM (inactive)	3.24 µM (inactive)	0.48 µM (active)	9.46 µM (inactive)	4.43 µM (inactive)	4.8 µM (inactive)	5.13 µM (inactive)	0.267 µM (active)	0.362 µM (active)	0.525 µM (active)
CC(C)(CN1CCCCC1)C(=O)/C=C/c1c(Cl)cccc1Cl	2.49 µM (inactive)	0.421 µM (active)	1.86 µM (inactive)	0.42 µM (active)	0.7 µM (active)	2.44 µM (inactive)	1.73 µM (inactive)	0.879 µM	1.49 µM (inactive)	0.811 µM (active)	1.35 µM (inactive)	1.83 µM (inactive)	1.49 µM (inactive)	2 µM (inactive)	2.18 µM (inactive)	1.49 µM (inactive)	1.08 µM (active)	3.89 µM (inactive)	0.124 µM (active)	0.637 µM (active)
CN(C)CCO/N=C1/C=C2CC[C@H]3[C@@H]4CC[C@H](O)[C@@]4(C)CC[C@@H]3[C@@]2(C)CC1	8.67 µM (inactive)	23.9 µM (inactive)	3.18 µM (inactive)	5.55 µM (inactive)	3.49 µM (inactive)	27.4 µM (inactive)	2.49 µM (inactive)	13.9 µM	11.7 µM (inactive)	15.9 µM (inactive)	11.4 µM (inactive)	9.82 µM (inactive)	13.9 µM (inactive)	12.9 µM (inactive)	13.9 µM (inactive)	15.4 µM (inactive)	31.9 µM (inactive)	25.2 µM (inactive)	1.67 µM (inactive)	10.5 µM (inactive)
O=[N+]([O-])c1ccc2[nH]nc(OCc3ccccn3)c2c1	73.8 µM (inactive)	47 µM (inactive)	> 100 µM (inactive)	> 100 µM (inactive)	> 100 µM (inactive)	50.5 µM (inactive)	> 100 µM (inactive)	> 100 µM	> 100 µM (inactive)	> 100 µM (inactive)	> 100 µM (inactive)	> 100 µM (inactive)	82.2 µM (inactive)	> 100 µM (inactive)	> 100 µM (inactive)	> 100 µM (inactive)	> 100 µM (inactive)	> 100 µM (inactive)	> 100 µM (inactive)	> 100 µM (inactive)
CN(C)CCNc1ccc2nnn3c4ccccc4c(=O)c1c23	7.87 µM (inactive)	6 µM (inactive)	2.4 µM (inactive)	2.34 µM (inactive)	3.44 µM (inactive)	4.56 µM (inactive)	3.08 µM (inactive)	3.25 µM	2.96 µM (inactive)	1.62 µM (inactive)	3.91 µM (inactive)	7.13 µM (inactive)	3.7 µM (inactive)	3.46 µM (inactive)	2.21 µM (inactive)	1.22 µM (inactive)	2.5 µM (inactive)	2.92 µM (inactive)	2.64 µM (inactive)	1.56 µM (inactive)
